Measurements taken from patent US20240335543A1, “IONIZABLE AMINE AND ESTER LIPIDS AND LIPID NANOPARTICLES” (Beam Therapeutics Inc., priority 2021, published 2024).

Key:
[1] = RNA encapsulation efficiency of LNPs by Ribogreen assay; assay type: physicochemical; settings: LNP with 47.5% Ionizable Lipid: 40% cholesterol: 2.5% PEG-2000 DMG: 10% DPSC, N/P 4-8
Description: (§1) LNPs were prepared with 47.5% Ionizable Lipid (e.g., a compound provided herein): 40% cholesterol: 2.5% PEG-2000 DMG: 10% DPSC and an N/P ratio range of 4-8. LNPs were formed by microfluidic mixing of the lipid and NA solutions using a Precision Nanosystems NanoAssemblr Spark or Benchtop series Instruments, according to the manufacturer's protocol. A ratio of aqueous to organic solvent of approximately 2:1 or 3:1 was maintained during mixing using differential flow rates. After mixing, LNPs were collected, diluted in phosphate buffer saline (PBS) or Tris-buffered saline (TBS) (approximately 1:1 v/v). Further buffer exchange was conducted using dialysis in PBS or TBS at 4° C. for 4 to 24 hours against a 20 kDa filter. After this initial dialysis, each individual LNP preparation was characterized via dynamic light scattering (DLS) to measure the size (e.g., diameter) and polydispersity. LNPs falling within specific diameter and polydispersity ranges were pooled, and further dialyzed against PBS or TBS at 4° C. for 1 to 4 hours against a 100 kDa dialysis cassette. After the second dialysis, LNPs were sterile filtered using 0.22 μm filter and stored at 4° C. for further use.
RNA concentration and encapsulation efficiency were determined by Ribogreen assay (BioTek Synergy LX plate reader).

ALAS1 target site = assay: In vivo base editing in liver with LNPs carrying adenine base editor mRNA and sgRNA, targeted deep sequencing; settings: Balb/C mice, tail vein, 0.15 mg/kg total RNA, ABE mRNA + ALAS1 sgRNA 1:1, tissues four to six days post-dose
Description: Exemplary LNP preparations were selected to determine each preparation's ability to perform base editing in a Balb/C mouse model as described herein.
Lipid nanoparticle components were dissolved in 100% ethanol at specified lipid component molar ratios. mRNA encoding an adenine base editor and a chemically-modified sgRNA was dissolved at a mass ratio of 1:1 in 50 mM citrate, pH 4.0, resulting in a concentration of NA cargo of approximately 0.1 mg/mL.
LNP preparations were formulated with molar ratios of 47.5% Ionizable Lipid: 40% Cholesterol: 2.5% PEG2000-DMG: 10% DSPC total lipid to NA mass ratio of 6 to 12.
LNP preparations were formed by microfluidic mixing of the lipid and NA solutions using a Precision Nanosystems NanoAssemblr Ignite series Instruments, according to the manufacturer's protocol.
A 3:1 ratio of aqueous to organic solvent was maintained during mixing using differential flow rates. After mixing, LNP preparations were collected, diluted in TBS (approximately 7:1 v/v), and further buffer exchange was conducted using dialysis in TBS at 4° C. for 8 to 24 hours against a 20 kDa filter. After this initial dialysis, each individual LNP preparation was characterized via dynamic light scattering (DLS) to measure size and polydispersity. pKa of a subpopulation of LNP preparations was measured via TNS assay.
After dialysis, LNP preparations were sterile filtered using 0.22 micron sterile filter and stored at 4° C. for further use. In some embodiments, LNP preparations were concentrated using 100 kDa Amicon filters per manufacturer's protocol.
Male Balb/C mice aged approximately 8-12 weeks were used in the experiments described herein. […]
Age-matched mice were also used to administer vehicle (1×TBS) via tail vein injection as a control. […] Base editing was determined by performing targeted deep sequencing analysis at the ALAS1 target site using extracted genomic DNA. […] Library size and concentration was confirmed by Fragment Analyzer (Agilent) and analyzed for whole genome sequencing using an Illumina HiSeq.

[2] = LNP hydrodynamic diameter and polydispersity index by dynamic light scattering (DLS); assay type: physicochemical; settings: LNP with 47.5% Ionizable Lipid: 40% cholesterol: 2.5% PEG-2000 DMG: 10% DPSC, N/P 4-8
Description: as §1
LNP hydrodynamic diameter and polydispersity index (PDI) were measured using high throughput dynamic light scattering (DLS) (Stunner, Unchained Labs). LNPs were diluted 1×TBS or PBS to an appropriate concentration and analyzed.

Liver = assay: Barcoded LNP biodistribution screen, fold above input (FAI) in liver; assay type: in vivo; settings: pooled LNP IV tail vein, mice, 4 hours post-dose
Description: (§2) Male and female mice aged approximately 8-12 weeks were used for studies described by the present Example. Each mouse was temporarily restrained and pooled LNP was administered IV via tail vein injection in up to five animals per experiment. Age-matched mice was also used to administer vehicle (1×TBS) via tail vein injection in up to three animals per experiment. Additional routes of administration can also be conducted including intracerebral ventricular (ICV), intracisterna manga (ICM), intrathecal (IT), intramuscular (IM), nebulization, intranasal (IN), subcutaneous (SC), intraarticular, and intradermal (ID). At 4 hours post-dose, tissues including liver, spleen, bone marrow, testes, gastrocnemius, quadricep, lung, heart, kidney, and pancreas may be collected for analysis. […]
(§3) To screen for preferential LNP delivery to a target tissues, the relative abundance of each barcode in one or more target tissues was measured and compared to the relative abundance of each barcode to its corresponding relative input abundance to determine fold above input (FAI) for each barcode. […]
(§4) The FAI is the normalized relative abundance of a barcode in a selected sample as compared to its frequency in the input. […] The FAI value of the barcode was calculated by normalizing the relative abundance in the barcode sequence counts in the isolated samples to its relative abundance in the administration input. […]

Lung = assay: Barcoded LNP biodistribution screen, fold above input (FAI) in lung; assay type: in vivo; settings: pooled LNP IV tail vein, mice, 4 hours post-dose
Description: as §2, §3, §4

Spleen = assay: Barcoded LNP biodistribution screen, fold above input (FAI) in spleen; assay type: in vivo; settings: pooled LNP IV tail vein, mice, 4 hours post-dose
Description: as §2, with “(ID).” for “(ID). At 4 hours post-dose, tissues including liver, spleen, bone marrow, testes, gastrocnemius, quadricep, lung, heart, kidney, and pancreas may be collected for analysis.”
Liver, kidney, lung, and muscle (e.g. skeletal and cardiac) tissues may be mechanically, and then enzymatically digested using a mixture of proteinases, then passed through a 70 μm filter to generate single cell suspensions. […] Tissues were treated with ACK buffer to lyse red blood cells, and then stained with fluorescently-labeled antibodies for flow cytometry and fluorescence-activated cell sorting (FACS). […]
as §3

Mean Encapsulation Efficiency (%) [1] [%] | Mean Diameter (nm) [2] [nm] | Mean PDI [2] | Compound | base editing observed in liver (ALAS1 target site) [%] | FAI (Liver) (Liver; Table 3 screening experiment) | FAI (Liver) (Liver; Table 4 screening experiment) | FAI (Lung) (Lung; Table 3 screening experiment) | FAI (Lung) (Lung; Table 4 screening experiment) | FAI (Spleen) (Spleen; Table 3 screening experiment) | FAI (Spleen) (Spleen; Table 4 screening experiment)
76.7 | 82.4 | 0.16 | CCCCCCC(CC)OC(=O)CCCCCCCCN(CCCCCCCCC(=O)OC(CC)CCCCCC)CCCNC(=O)c1cccc(C(=O)NCCCN(CCCCCCCCC(=O)OC(CC)CCCCCC)CCCCCCCCC(=O)OC(CC)CCCCCC)c1 (stereo not drawn) [Compound 7-1, tetra(nonan-3-yl) 9,9′,9″,9′″-(((isophthaloylbis(azanediyl))bis(propane-3,1-diyl))bis(azanetriyl))tetranonanoate] | 28.2 | – | – | – | – | – | –
58.4 | 110.0 | 0.08 | CCCCCCC(CC)OC(=O)CCCCCCCCN(CCCCCCCCC(=O)OC(CC)CCCCCC)CCCNC(=O)c1ccc(C(=O)NCCCN(CCCCCCCCC(=O)OC(CC)CCCCCC)CCCCCCCCC(=O)OC(CC)CCCCCC)cc1 (stereo not drawn) [Compound 7-2, tetra(nonan-3-yl) 9,9′,9″,9′″-(((terephthaloylbis(azanediyl))bis(propane-3,1-diyl))bis(azanetriyl))tetranonanoate] | 3.1 | – | – | – | – | – | –
94.7 | 124.6 | 0.10 | CCCCCCC(CC)OC(=O)CCCCCCCCN(CCCCCCCCC(=O)OC(CC)CCCCCC)CCCNC(=O)c1cc(C(=O)NCCCN(CCCCCCCCC(=O)OC(CC)CCCCCC)CCCCCCCCC(=O)OC(CC)CCCCCC)cc(C(=O)OCCN(C)C)c1 (stereo not drawn) [Compound 7-5, tetra(nonan-3-yl) 9,9′,9″,9′-((((5-((2-(dimethylamino)ethoxy)carbonyl)isophthaloyl)bis(azanediyl))bis(propane-3,1-diyl))bis(azanetriyl))tetranonanoate] | 5.2 | – | – | – | – | – | –
75.3 | 86.5 | 0.09 | CCCCCC(CCCCC)CCOC(=O)CCCCCCCOC(=O)c1cc(C(=O)OCCCCCCCC(=O)OCCC(CCCCC)CCCCC)cc(C(=O)OCCCN(C)C)c1 [Compound 7-7, 1-(3-(dimethylamino)propyl) 3,5-bis(8-oxo-8-((3-pentyloctyl)oxy)octyl) benzene-1,3,5-tricarboxylate] | – | – | – | – | – | – | –
84.9 | 90.8 | 0.11 | CCCCCC(CCCCC)CCOC(=O)CCCCCCCOC(=O)c1cc(C(=O)OCCCCCCCC(=O)OCCC(CCCCC)CCCCC)cc(C(=O)OCCCCN(C)C)c1 [Compound 7-9, 1-(4-(dimethylamino)butyl) 3,5-bis(8-oxo-8-((3-pentyloctyl)oxy)octyl) benzene-1,3,5-tricarboxylate] | – | – | – | – | – | – | –
– | – | – | CCCCC/C=C\C/C=C\CCCCCCCCC(CCCCCCCC/C=C\C/C=C\CCCCC)OC(=O)CCCN(C)C [MC3, (6Z,9Z,28Z,31Z)-heptatriaconta-6,9,28,31-tetraen-19-yl 4-(dimethylamino) butanoate] | – | 0.31 | 1.30 | 0.65 | 1.26 | 0.45 | 1.71
